Measured values published in patent US11033569B2, “Compounds,Compositions, and methods for the treatment of disease” (Sperovie Biosciences, Inc., priority 2016, dated 2021).
Entries after “also recorded” stand apart in the source; their conditions may differ.

Assays:
[1] = tested on: THP1 cells; experiment: Caspase-Glo 3/7 apoptosis assay in THP1 cells; format: cell-based; conditions: THP1, Lipofectamine LTX, 20 h
Procedure: The Apoptosis in THP1 cells was assessed using Caspase-Glo® 3/7 Assay (Promega). […] The caspase-3 and -7 activity was measured by using a pro-luminescent caspase-3/7 substrate that contains the tetrapeptide sequence DEVD which is cleaved to release amino-luciferin, a substrate of luciferase used in the production of light. After incubation for 20 h, Apoptotic activity was assessed by measuring levels of amino-luciferin. % Apoptosis was calculated from fold-change in luminescence compared to DMSO-treated sample. CC50 values are generated by curve fit in Xlfit.

[2] = tested on: A20 lymphoma; experiment: Syngeneic A20 lymphoma mouse model; format: in vivo; conditions: for tumor growth upon re-challenge with tumor cells: compared with control
[3] = tested on: ISG54 ISRE-luc reporter; experiment: ISG54 ISRE-luc reporter activation in HEK293 (SZ14) cells, screen for STING agonists; format: cell-based; conditions: digitonin buffer, 5 hours, read-out: IRF EC50
Procedure: (§1) ISG54 or NF-κβ activity was determined using the Steady-glo buffer system (Promega), and are expressed as EC50 values summarized in Table 3 below. […] This calculation is applicable for compounds with enzyme inhibition activity, as the baseline for an untreated sample may be set at 100% enzymatic activity, and therefore % inhibition is evaluated based on this 100% maximal basis. For these studies, the EC50 value relates to the concentration required to achieve a value 50% activity level above the untreated sample set at 0%.
(§2) Data are shown as fold induction over cells that received DMSO (compound carrier) alone as the mean, +/−standard deviation of duplicate wells per stimulant.

[4] = tested on: tumor cells and THP1 cells; experiment: Tumor cell growth, high-content image-based approach
[5] = Oral maximum tolerated dose study in BALB/c mice; format: in vivo
Procedure: In order to investigate the maximum tolerated dosage of orally administered compounds, 15 female BALB/c mice between 7-10 weeks old were split into three treatment groups. Each group was administered either Cmd 1 or vehicle orally, according to the schedule outlined in Table 5 below. Cmd 1 was provided at 10 mL/kg (0.200 mL/20 g mouse).

[6] = tested on: NF-κβ-luc reporter; experiment: NF-κβ-luc reporter activation in HEK293 (SZ14) cells, screen for STING agonists; format: cell-based; conditions: digitonin buffer, 5 hours, read-out: NF-KB EC50
Procedure: as §1, §2

[7] = tested on: mouse melanoma cells; experiment: Apoptosis of mouse melanoma cells; format: cell-based
[8] = tested on: A20 mouse B cell lymphoma tumor cells; experiment: Apoptosis-related genes and ISGs in A20 mouse B cell lymphoma tumor cells; format: cell-based; conditions: compared with 2′3′-cGAMP
[9] = tested on: THP1 cells and PBMCs; experiment: Caspase-Glo 3/7 apoptosis assay, THP1 vs. PBMCs; format: cell-based; conditions: Lipofectamine LTX, 20 h
Procedure: The Apoptosis in THP1 cells and PBMCs was assessed using Caspase-Glo® 3/7 Assay (Promega). […] The caspase-3 and -7 activity was measured by using a proluminescent caspase-3/7 substrate that contains the tetrapeptide sequence DEVD which will be cleaved to release aminoluciferin, a substrate of luciferase used in the production of light. After incubation for 20 h, Apoptotic activity was assessed by measure levels of aminoluciferin. % Apoptosis was calculated from fold change in luminescence compared to DMSO treated sample.

[10] = tested on: mouse lymphoma cell line A20; experiment: Apoptosis in mouse lymphoma cell line A20; format: cell-based; conditions: A20 cells
[11] = tested on: STING-R238A and STING-Y167A; experiment: STING loss-of-function mutants, STING-dependent IFN response; format: cell-based
[12] = target: T1, STING (Homo sapiens, UniProt Q86WV6); experiment: Gel shift assay; format: binding; conditions: gel shift with fluorescent close structural analog of Cmd 1
T1 construct: host or cells: SZ14 HEK293 cells stably expressing ISG54 ISRE-luc reporter

[13] = tested on: panel of normal cell lines; experiment: Cytotoxicity in a panel of normal cell lines; format: cell-based
[14] = tested on: human monocytes; experiment: Activity in human monocytes; format: cell-based; conditions: human monocytes (FIG. 36A)
[15] = tested on: THP1 cells; experiment: Type III IFN (IL-29) production in THP1 cells (ELISA); format: cell-based; conditions: 21 hrs
Procedure: Level of IL-29 in culture supernatant was determined using ELISA. Results shown are the average±standard deviation of duplicate wells.

[16] = target: T2, STING (Homo sapiens, UniProt Q86WV6, G230A/H232R/R293Q/R71H); experiment: Role of STING palmitoylation in THP1 cells; format: cell-based
T2 construct: endogenous in cells; host or cells: THP1 cells

[17] = tested on: IRF-type I and type III IFN response; experiment: IRF-type I and type III IFN response; format: cell-based
[18] = target: T1, STING; experiment: STING dependence of cell death; format: cell-based
[19] = tested on: 4T1.luc2 orthotopic murine breast carcinoma; experiment: 4T1.luc2 orthotopic murine breast carcinoma model; format: in vivo, mice
Procedure: The efficacy of intraperitoneal administration of Cmd 1 was investigated in the 4T1.luc2 orthotopic murine breast carcinoma model. Thirty female BALB/c mice between 7-10 weeks old were randomized into four treatment groups based on Day 1 body weight, and the treatment was carried out according to the regimen outlined in Table 4 below. Cmd 1 was dissolved in saline and administered at 10 mL/kg (0.200 mL/20 g mouse), with a cell injection volume of 0.05 mL/mouse.
Each animal was monitored individually. The endpoint of the experiment was a tumor volume of […] or 45 days. Animals in Groups 1 and 2 were subjected to whole body bioluminescent imaging starting on Day 5 and once a week thereafter (Days 12, 19, 26, 33, and 41). At the endpoint, blood and tissue (lung, lymph nodes, spleen, and tumor) was analyzed for presence of metastases and biomarker (CD45, CD3, CD4, CD8, CD11b, CD25, Ly-6G, Ly-6C, FoxP3) levels.

[20] = tested on: human natural killer (NK) cells; experiment: Human natural killer (NK) cell activation; format: cell-based
[21] = 60 mg/kg po bid x 10 (first day 1 dose), n=5
[22] = oral, once daily or twice daily up to 60 mgkg/day

T1 sequence (Q86WV6 whole entry): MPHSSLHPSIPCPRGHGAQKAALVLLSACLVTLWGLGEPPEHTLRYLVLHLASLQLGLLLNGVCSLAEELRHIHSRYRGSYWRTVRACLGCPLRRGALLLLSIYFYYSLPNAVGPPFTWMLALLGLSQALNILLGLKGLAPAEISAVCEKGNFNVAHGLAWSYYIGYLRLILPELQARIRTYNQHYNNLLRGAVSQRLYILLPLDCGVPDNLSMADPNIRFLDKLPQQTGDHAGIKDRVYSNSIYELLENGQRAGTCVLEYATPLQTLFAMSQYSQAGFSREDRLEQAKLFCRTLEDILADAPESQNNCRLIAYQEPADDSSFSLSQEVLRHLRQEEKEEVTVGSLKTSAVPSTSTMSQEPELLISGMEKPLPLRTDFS
T2 sequence (Q86WV6 whole entry R71H/G230A/H232R/R293Q): as the sequence (Q86WV6 whole entry) above, with R71H, G230A, H232R, R293Q counted along it

For `CCCCCCCCCCOc1ccc(C(=O)Oc2ccc(CSP3(=O)OC[C@H]4O[C@@H](n5cnc6c(N)ncnc65)[C@H](F)[C@@H]4OP(=O)(O)OC[C@H]4O[C@@H](n5ccc(=O)[nH]c5=O)[C@H](F)[C@@H]4O3)cc2)cc1.N` (some centres unmarked) [Cmd 1], the apoptosis [1] was “Causes Cell Death by Apoptosis”, the survival rate ([2]; combination therapy with cyclophosphamide) was “significantly improve the survival rate” and the tumor-free survival ([2]; in combination with cyclophosphamide) was “results in tumor-free survival”. The survival rate ([2]; monotherapy) was “significantly improve the survival rate”, the tumor growth ([2]; monotherapy, compared with vehicle) was “potently inhibits lymphoma tumor growth; also recorded: considerable tumor growth inhibition; also recorded: inhibit mouse A20 B cell lymphoma tumor cells” and the “migration of CD8 T cells into the tumor site (immunohistochemistry)” value ([2]; tumor tissue, vs vehicle) was “induces migration of CD8 T into the tumor site”. The “migration of NK cells into the tumor site (anti-granzyme B immunohistochemistry)” value ([2]; tumor tissue, vs vehicle) was “induces migration of NK cells into the tumor site”, the “migration of macrophages into the tumor site (anti-F4/80 immunohistochemistry)” value ([2]; tumor tissue, vs vehicle) was “induces migration of macrophages into the tumor site” and the “tumor growth upon re-challenge with tumor cells” value ([2]; tumor-free mice after Cmd 1 + cyclophosphamide treatment) was “no tumor growth”. The “tumor growth upon re-challenge with tumor cells” value ([2]; tumor-free mice after Cmd 1 treatment) was “no tumor growth”, the EC50 [3] was less than 50 nM and the anti-tumor activity ([4]; high-content image-based approach (FIG. 49)) was “anti-tumor activity”. The “STING dependence of tumor cell growth inhibition” value ([4]; tumor cells and THP1 cells) was “STING dependent”, the tumor cell growth ([4]; tumor cells and THP1 cells, high-content image-based approach) was “inhibits tumor cell growth” and the NTR [5, 21] was 0. The NTRm [5, 21] was 0, the TR [5, 21] was 0 and the “BW Nadir” value ([5]; 60 mg/kg po bid x 10 (first day 1 dose), nadir day (11)) was −3.6%. It also gave an NTR ([5]; 60 mg/kg po qd x 10, n=5) of 0, an NTRm ([5]; 60 mg/kg po qd x 10, n=5) of 0 and a TR ([5]; 60 mg/kg po qd x 10, n=5) of 0. For the same molecule, the adverse clinical signs [5, 22] was “no adverse clinical signs”, the tolerability [5, 22] was “well tolerated” and the EC50 [6] was 50 to 500 nM. For the same molecule, the apoptosis [7] was “causes apoptosis”, the BAX/BCL2 ratio [8] was “higher BAX/BCL2 ratio” and the “selectivity of apoptosis induction THP1 vs. PBMCs” value [9] was “selective induction of apoptosis”. The apoptosis [10] was “induces apoptosis”, the “dependence of STING activation on residues R238 and Y167” value [11] was “critical” and the “binding to STING” value [12] was “binds to STING”. The cytotoxicity [13] was “non-cytotoxic”, the “activity relative to natural STING ligand 3′,3′-cGAMP” value [14] was “more active” and the “type III interferon (IL-29) production” value [15] was “induce type III interferon (IL-29) production”. The “involvement of STING palmitoylation in activation of NF-κB and IRF-type I interferon response” value [16] was “palmitoylation of STING is involved”, the “IRF-type I and type III IFN response” value [17] was “strongly activates” and the “STING dependence of induction of cell death” value [18] was “STING-mediated”. For the same molecule, the “tumor growth / tumor volume” value ([19]; 10 mg/kg ip days 5, 7, 9, 11, 14, 18, compared with control) was “significant decline in tumor volume; also recorded: significant decrease in tumor growth”, the tumor growth ([19]; 4T1 breast cancer model, compared with vehicle (FIG. 75)) was “considerable tumor growth inhibition” and the “tumor growth (luminescence images)” value ([19]; intraperitoneal administration, compared with vehicle (FIG. 82)) was “considerable tumor growth inhibition”. The NK cell activation [20] was “activates human natural killer (NK) cells” and the IFN-γ production ([20]; human NK cells) was “induces IFN-γ production”.
